Test results taken from patent US9833497B2, “Human originated EGF domain proteins and use of the same” (CHENGDU SOURCEBIO LIMITED-LIABILITY COMPANY, priority 2013, dated 2017).

Experiments:
Type in all cases: cell-based
Proteus vulgaris = assay: MIC against Gram-negative bacteria: Proteus vulgaris; settings: 5×10^5 CFU/mL; for MIC P. vulgaris: two-fold serial dilution
Method in brief: (§1)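 Read-out is absence of bacterial growth, with MIC set at the lowest recombinant protein concentration achieving it. Bacteria, pre-grown in LB to McFarland 0.5 and resuspended, were exposed at 5×10^5 CFU/mL to two-fold diluted human EGF domain proteins in triplicate at 37° C, 175 rpm.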

Pseudomonas aeruginosa = assay: MIC against Gram-negative bacteria: Pseudomonas aeruginosa; settings: 5×10^5 CFU/mL; for MIC P. aeruginosa: two-fold serial dilution
Method in brief: as §1

Klebsiella pneumonia = assay: MIC against Gram-negative bacteria: Klebsiella pneumonia; settings: 5×10^5 CFU/mL; for MIC K. pneumonia: two-fold serial dilution
Method in brief: as §1

Aeromonas hydrophila = assay: MIC against Gram-negative bacteria: Aeromonas hydrophila; settings: 5×10^5 CFU/mL; for MIC A. hydrophila: two-fold serial dilution
Method in brief: as §1

E. coli DH5α = assay: Antibacterial activity: MIC and growth curve against E. coli DH5α in 96-well plate; settings: minimal inhibitory concentration against E. coli DH5α; 96-well plate, 5×10^5 CFU/mL, 37° C., judged after 8 h
Method in brief: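 Log-phase DH5α (OD600 about 0.5, 37° C, 185 rpm in LB) was pelleted, resuspended in fresh LB and seeded at 5×10^5 CFU/mL with recombinant protein at 50, 25 and 12.5 μg/mL (two-fold series), in triplicate. Plates were shaken at 175 rpm, 37° C, and OD600 was read every 30 min. MIC was the lowest concentration with no growth.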

Enterobacter cloacae = assay: MIC against Gram-negative bacteria: Enterobacter cloacae; settings: 5×10^5 CFU/mL; for MIC E. cloacae: two-fold serial dilution
Method in brief: as §1

Serratia marcescens = assay: MIC against Gram-negative bacteria: Serratia marcescens; settings: 5×10^5 CFU/mL; for MIC S. marcescens: two-fold serial dilution
Method in brief: as §1

Moraxella catarrhalis = assay: MIC against Gram-negative bacteria: Moraxella catarrhalis; settings: 5×10^5 CFU/mL; for MIC M. catarrhalis: two-fold serial dilution
Method in brief: as §1

Citrobacter diversus = assay: MIC against Gram-negative bacteria: Citrobacter diversus; settings: 5×10^5 CFU/mL; for MIC C. diversus: two-fold serial dilution
Method in brief: as §1

E. coli BL21 = assay: MIC against Gram-negative bacteria: E. coli BL21; settings: 5×10^5 CFU/mL; for MIC E. coli BL21: two-fold serial dilution
Method in brief: as §1

Proteus mirabilis = assay: MIC against Gram-negative bacteria: Proteus mirabilis; settings: 5×10^5 CFU/mL; for MIC P. mirabilis: two-fold serial dilution
Method in brief: as §1

[1] = E. coli BL21, 10 h cultivation at 37° C.

PRT1055 (GADPCLYQNGGCEHICKKRLGTAWCSCREGFMKASDGKTCL; listed as Homo sapiens)
12.5 µg/mL: MIC P. aeruginosa (Pseudomonas aeruginosa; 10 h cultivation at 37° C.) | MIC (E. coli DH5α) | MIC E. cloacae (Enterobacter cloacae; 10 h cultivation at 37° C.) | MIC S. marcescens (Serratia marcescens; 10 h cultivation at 37° C.) | MIC M. catarrhalis (Moraxella catarrhalis; 10 h cultivation at 37° C.)
25 µg/mL: MIC C. diversus (Citrobacter diversus; 10 h cultivation at 37° C.) | MIC P. mirabilis (Proteus mirabilis; 10 h cultivation at 37° C.)
50 µg/mL: MIC P. vulgaris (Proteus vulgaris; 10 h cultivation at 37° C.) | MIC K. pneumonia (Klebsiella pneumonia; 10 h cultivation at 37° C.) | MIC A. hydrophila (Aeromonas hydrophila; 10 h cultivation at 37° C.) | MIC E. coli BL21 (E. coli BL21; 10 h cultivation at 37° C.)

PRT1201 (DIDECALRTHTCWNDSACINLAGGFDCLCPSGPSCS; listed as Homo sapiens)
50 µg/mL: MIC against E. cloacae (Enterobacter cloacae; Enterobacter cloacae, 96-well plate, 37° C., 10 h) | MIC against M. catarrhalis (Moraxella catarrhalis; Moraxella catarrhalis, 96-well plate, 37° C., 10 h) | MIC against E. coli BL21 (E. coli BL21; E. coli BL21, 96-well plate, 37° C., 10 h)
12.5 µg/mL: MIC against P. vulgaris (Proteus vulgaris; Proteus vulgaris, 96-well plate, 37° C., 10 h) | MIC against P. aeruginosa (Pseudomonas aeruginosa; Pseudomonas aeruginosa, 96-well plate, 37° C., 10 h) | MIC (E. coli DH5α) | MIC against C. diversus (Citrobacter diversus; Citrobacter diversus, 96-well plate, 37° C., 10 h)
25 µg/mL: MIC against K. pneumonia (Klebsiella pneumonia; Klebsiella pneumonia, 96-well plate, 37° C., 10 h) | MIC against A. hydrophila (Aeromonas hydrophila; Aeromonas hydrophila, 96-well plate, 37° C., 10 h) | MIC against S. marcescens (Serratia marcescens; Serratia marcescens, 96-well plate, 37° C., 10 h) | MIC against P. mirabilis (Proteus mirabilis; Proteus mirabilis, 96-well plate, 37° C., 10 h)

PRT420 (DIDECVTGIHNCSINETCFNIQGGFRCLAFECPENYRRSAATLQQEKTDTVRCI; listed as Homo sapiens)
50 µg/mL: MIC (E. coli DH5α) | MIC (Enterobacter cloacae; E. cloacae, 10 h cultivation at 37° C.) | MIC (Serratia marcescens; S. marcescens, 10 h cultivation at 37° C.) | MIC (Citrobacter diversus; C. diversus, 10 h cultivation at 37° C.) | MIC (Proteus mirabilis; P. mirabilis, 10 h cultivation at 37° C.)
100 µg/mL: MIC (Proteus vulgaris; P. vulgaris, 10 h cultivation at 37° C.)
12.5 µg/mL: MIC (Pseudomonas aeruginosa; P. aeruginosa, 10 h cultivation at 37° C.) | MIC (Aeromonas hydrophila; A. hydrophila, 10 h cultivation at 37° C.) | MIC (Moraxella catarrhalis; M. catarrhalis, 10 h cultivation at 37° C.)
25 µg/mL: MIC (Klebsiella pneumonia; K. pneumonia, 10 h cultivation at 37° C.) | MIC (E. coli BL21; [1])

PRT554 (CNCESDFTDGTCEDLTGRCYCRPNFSGERCDVCAEGFTGFPSCYPT; listed as Homo sapiens)
50 µg/mL: MIC against K. pneumonia (Klebsiella pneumonia; 96-well plate, 37° C., 10 h) | MIC against M. catarrhalis (Moraxella catarrhalis; 96-well plate, 37° C., 10 h) | MIC against E. coli BL21 (E. coli BL21; 96-well plate, 37° C., 10 h)
12.5 µg/mL: MIC against P. vulgaris (Proteus vulgaris; 96-well plate, 37° C., 10 h) | MIC against P. aeruginosa (Pseudomonas aeruginosa; 96-well plate, 37° C., 10 h) | MIC against A. hydrophila (Aeromonas hydrophila; 96-well plate, 37° C., 10 h) | MIC (E. coli DH5α)
25 µg/mL: MIC against E. cloacae (Enterobacter cloacae; 96-well plate, 37° C., 10 h) | MIC against S. marcescens (Serratia marcescens; 96-well plate, 37° C., 10 h) | MIC against C. diversus (Citrobacter diversus; 96-well plate, 37° C., 10 h) | MIC against P. mirabilis (Proteus mirabilis; 96-well plate, 37° C., 10 h)

PRT1397 (PMNQCIDPSCGGHGSCIDGNCVCSAGYKGEHCE; listed as Homo sapiens)
25 µg/mL: MIC against S. marcescens (Serratia marcescens; Serratia marcescens, 10 h cultivation at 37° C.) | MIC against C. diversus (Citrobacter diversus; Citrobacter diversus, 10 h cultivation at 37° C.) | MIC against E. coli BL21 (E. coli BL21; [1]) | MIC against P. mirabilis (Proteus mirabilis; Proteus mirabilis, 10 h cultivation at 37° C.)
12.5 µg/mL: MIC against P. aeruginosa (Pseudomonas aeruginosa; Pseudomonas aeruginosa, 10 h cultivation at 37° C.) | MIC against E. cloacae (Enterobacter cloacae; Enterobacter cloacae, 10 h cultivation at 37° C.) | MIC against M. catarrhalis (Moraxella catarrhalis; Moraxella catarrhalis, 10 h cultivation at 37° C.)
50 µg/mL: MIC against P. vulgaris (Proteus vulgaris; Proteus vulgaris, 10 h cultivation at 37° C.) | MIC against K. pneumonia (Klebsiella pneumonia; Klebsiella pneumonia, 10 h cultivation at 37° C.) | MIC against A. hydrophila (Aeromonas hydrophila; Aeromonas hydrophila, 10 h cultivation at 37° C.) | MIC (E. coli DH5α)

PRT1081 (APNPCEANGGQGPCSHLCLINYNRTVSCACPHLMKLHKDNTTCY; listed as Homo sapiens)
50 µg/mL: MIC P. vulgaris (Proteus vulgaris; 10 h cultivation at 37° C.) | MIC P. aeruginosa (Pseudomonas aeruginosa; 10 h cultivation at 37° C.) | MIC E. cloacae (Enterobacter cloacae; 10 h cultivation at 37° C.) | MIC C. diversus (Citrobacter diversus; 10 h cultivation at 37° C.)
12.5 µg/mL: MIC K. pneumonia (Klebsiella pneumonia; 10 h cultivation at 37° C.) | MIC A. hydrophila (Aeromonas hydrophila; 10 h cultivation at 37° C.) | MIC S. marcescens (Serratia marcescens; 10 h cultivation at 37° C.) | MIC M. catarrhalis (Moraxella catarrhalis; 10 h cultivation at 37° C.) | MIC E. coli BL21 (E. coli BL21; 10 h cultivation at 37° C.)
25 µg/mL: MIC (E. coli DH5α) | MIC P. mirabilis (Proteus mirabilis; 10 h cultivation at 37° C.)
